In PubChem BioAssay AID179 (DTP/NCI, 2004):
“And” between values parts separate entries of the source, which are not always exact repeats. Equal values may be shown once. The source made the active and inactive calls.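 The calls were made as follows: active = compounds giving half or more protection of infected cells from virus-caused growth loss, again on retest; inactive = the rest.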

System: CEM cells HIV-1 protection, formazan growth assay
Test: NCI AIDS Antiviral Assay
Details: for IC50: measured here: growth of uninfected CEM cells
Outline: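 Protection of CEM cells against HIV-1 was scored from cell growth (soluble formazan) across five concentrations, with parallel uninfected cells. Lack of protection may reflect toxicity.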

O=C(OCC(OC(=O)c1ccccc1)C1CC(C2(O)CCCCC2)C(=O)O1)c1ccccc1 (configuration not stated)
EC50: > 50.1 µM | IC50: > 50.1 µM

O=C(O)c1cc[c]([Sb](=[O])([OH])[OH])cc1
EC50: 29.5 µM | IC50: > 200 µM

CC(=O)OCC1OC(OCCCOP(=O)(OCCC#N)OCC2OC(n3cnc4c(N)ncnc43)C(OC(=O)c3ccccc3)C2OC(=O)c2ccccc2)C(OC(C)=O)C(OC(C)=O)C1OC(C)=O (configuration not stated)
EC50: > 100 µM | IC50: > 100 µM

COc1cc(/C=C/C(=O)CC(=O)/C=C/c2cc(OC)c(O)c(OC)c2)cc(OC)c1O
EC50: > 200 µM | IC50: 12.6 µM

CC1(C)OC(=O)C(=C=[N-])/C1=C\[n+]1ccccc1
EC50: > 417 µM | IC50: > 417 µM

Nc1ncc(Cl)c(NCC2(CO)CC(CCc3ccccc3)C2)n1 (configuration not stated)
EC50: > 200 µM | IC50: 3.24 µM

CCc1n[nH]c(=O)n1/N=C/c1ccccc1O
EC50: > 200 µM | IC50: > 200 µM

C=CC(=O)N1C/C(=C\c2ccc(Cl)c(Cl)c2)C(=O)/C(=C/c2ccc(Cl)c(Cl)c2)C1
EC50: > 5.89 µM | IC50: 0.0372 µM

C[N+](C)(C)CCC(=O)CC[N+](C)(C)C
EC50: > 8.32 µM | IC50: > 8.32 µM

CN(C)/C=N/NC(=O)C(O)(c1ccccc1)c1ccccc1
EC50: > 200 µM | IC50: > 200 µM

Nc1n[nH]c2c(C(=O)Nc3ccc(Cl)cc3)c(N)n(N)c(=O)c12
EC50: > 200 µM | IC50: > 200 µM

Nc1ccccc1SC(CC(=O)c1ccccc1)c1ccc2c(c1)OCO2 (configuration not stated)
EC50: > 200 µM | IC50: 10.7 µM

CN(C)P1(=O)OCC2CCC[C@@H]2O1 (some centres not stated)
outcome: inactive

Cc1cccc(/C=N/NC(=S)N(C)CCc2ccccn2)n1
EC50: > 2 µM | IC50: 0.0331 µM

O=C1C(=O)N(c2ccc(Cl)cc2Cl)C(=O)C(=O)C1c1nc2ccccc2o1
EC50: > 85.1 µM | IC50: > 85.1 µM

COc1cc2c(c(OC)c1)C1(CC(CC#N)C2)SCCS1 (configuration not stated)
outcome: inactive

O=C(O)Cn1c(=O)[nH]c(=O)c2[nH]cnc21
EC50: > 1200 µM | IC50: > 1200 µM

O=C1CS(=O)(=O)CN1N1CS(=O)(=O)CC1=O
EC50: > 200 µM | IC50: 110 µM

CCOC(=O)C1(Br)CCN(S(=O)(=O)c2ccc(C)cc2)c2ccccc2C1=O (configuration not stated)
EC50: > 200 µM | IC50: 1.51 µM

CCOC(=O)C1Cc2c([nH]c(=O)[nH]c2=O)OC1c1ccc([N+](=O)[O-])cc1 (configuration not stated)
EC50: > 363 µM | IC50: > 363 µM

CCOC(=O)C1=C(OC(OCC)C(CC)[Se]c2ccccc2)CCCC1 (configuration not stated)
EC50: > 23.4 µM | IC50: > 23.4 µM

COc1ccc(Cc2cnc(N)nc2N)cc1OC
outcome: inactive

Cc1nnc(N)nc1C/C=C/C(Sc1ccc(Cl)cc1)c1ccccc1 (configuration not stated)
EC50: > 9.77 µM | IC50: 3.98 µM

O=C(/C=C/c1ccc(O)c([N+](=O)[O-])c1)CC(=O)/C=C/c1ccc(O)c([N+](=O)[O-])c1
EC50: > 200 µM | IC50: 25.7 µM

N/C(=C\c1ccc(/C=C(\NC(=O)c2ccccc2)c2nc3c([nH]2)C(=O)c2ccccc2C3=O)cc1)c1nc2c([nH]1)C(=O)c1ccccc1C2=O
outcome: inactive

C/C(=N\Nc1ccc([N+](=O)[O-])cc1)C(=O)N(C)Nc1ccccc1
outcome: inactive

O=C1OC(c2cccs2)Sc2ccccc21 (configuration not stated)
EC50: > 200 µM | IC50: 195 µM

NCCCNCCS
EC50: > 589 µM | IC50: 30.2 µM

O=C1NC2(CCCC2)C(=O)N2CCCC12 (configuration not stated)
EC50: > 129 µM | IC50: > 129 µM

S=C(NCc1ccccc1)N/N=C/c1ccccn1
EC50: > 20 µM | IC50: 0.141 µM

C=CCC1(C#N)C(=S)NC2=C(C(=O)CC(C)(C)C2)C1c1ccccc1 (configuration not stated)
EC50: > 200 µM | IC50: > 200 µM

Cc1ccccc1-c1nc2c(N)nc(N)nc2nc1N
outcome: inactive

CC1CCC2C(C(=O)O[C@H]3C4C=CO[C@@H](OC5OC(CO)C(O)C(O)C5O)C4[C@@]4(CO)O[C@@H]34)=CO[C@@H](OC3OC(CO)C(O)C(O)C3O)C12 (some centres not stated)
EC50: > 200 µM | IC50: > 200 µM

Cc1cc(=O)oc2c1cc(OCC(=O)OCCN1CCCCC1)c1occ(C)c12
outcome: inactive

C(/C=C\c1ccccc1)=NCCCCCCN=C/C=C/c1ccccc1
EC50: > 20 µM | IC50: 12.3 µM

CC1=CC(=O)/C(=C\N2C(=O)CC(=O)NC2=S)C(=O)O1
EC50: > 100 µM | IC50: > 100 µM

Cc1c(Cl)ccc2[s+]snc12
outcome: inactive

O=C1c2cc(Cl)ccc2NC(=NCCCl)C2CSCN12 (configuration not stated)
EC50: > 200 µM | IC50: > 200 µM

CC(=O)C1C(=O)C(=O)N(c2cccc(C)c2C)C1=O (configuration not stated)
EC50: > 200 µM | IC50: > 200 µM

COc1ccc(/C(=N/O)c2ccccc2-c2nc3ccccc3c(=O)n2Nc2ccc([N+](=O)[O-])cc2[N+](=O)[O-])cc1C
EC50: > 200 µM | IC50: 43.7 µM

COc1ccc(OC)c2c(=S)c3ccccc3[nH]c12
outcome: inactive

S=C1SCCS1
EC50: > 200 µM | IC50: > 200 µM

CC(=O)c1c(O)ccc2c1CC(CC=O)O2 (configuration not stated)
EC50: > 589 µM | IC50: 22.9 µM

COc1ccccc1CO[C@]1(C)CNCC(C)(C)NC(=O)[C@@](C)(OCc2ccccc2OC)CNCC(C)(C)NC1=O
EC50: > 200 µM | IC50: > 200 µM

C/C(=C\C(=O)OCCCCCCCC(=O)NC1CCCNC1=O)C[C@@H]1OC[C@H](C/C=C/[C@@H](C)[C@H](C)O)[C@@H](O)[C@H]1O (some centres not stated)
outcome: inactive

CC(C)CCCCCCCCCCCCC(=O)NCC(=O)NC1C(O)C(O)C(Nc2ncnc3nc[nH]c23)OC1C(O)CO (configuration not stated)
EC50: > 0.417 µM | IC50: 0.00224 µM

C[C@@H]1OCC(O)C([C@H]2OC(c3ccccc3)=N[C@H]2CO)O1 (some centres not stated)
EC50: > 200 µM | IC50: > 200 µM

O=Nc1ccccc1
EC50: > 200 µM | IC50: > 200 µM

COc1ccc(/C=C2\N=C(C)OC2=O)cc1
EC50: > 437 µM | IC50: > 437 µM

CCCCOC(=O)N(CCCC)c1ccccc1
EC50: > 200 µM | IC50: 151 µM

COc1c(NC(C)=O)cc(C)cc1NC(C)=O
outcome: inactive

CC(=O)OC(OC(C)=O)c1ncccc1C(=O)OC(C)C
EC50: > 851 µM | IC50: 112 µM

Nc1ncnc2c1ncn2C1OC(CSCC(F)(F)F)C(O)C1O (configuration not stated)
EC50: > 692 µM | IC50: 245 µM

O=C(Nc1ncnc2c1ncn2C1OC(CO)CC1F)c1ccccc1 (configuration not stated)
outcome: inactive

CC(=O)NC1CC(C(C)(C)NC(C)=O)CC=C1C (configuration not stated)
EC50: > 269 µM | IC50: > 269 µM

O=C1CCCC(=O)N1CCc1c[nH]c2ccccc12
outcome: inactive

C/C(CC(O)(C(F)(F)F)C(F)(F)F)=N\NC(N)=S
EC50: > 200 µM | IC50: > 200 µM

Cc1cc2c(cc1C)NC(=O)CC(=O)N2
EC50: > 200 µM | IC50: > 200 µM

COC(CN1CCOCCOCCOCC1)CN1CCOCCOCCOCC1
EC50: > 2510 µM | IC50: > 2510 µM

CCCCCCCCCCCCCCCCNc1ccn(C2CC(O)C(COC(c3ccccc3)(c3ccccc3)c3ccc(OC)cc3)O2)c(=O)n1 (configuration not stated)
EC50: > 200 µM | IC50: 45.7 µM

CC(=O)c1c2c(cc3c1CC1(Cc4cc5c(cc4C1)CCC5)C3)CCC2
EC50: > 200 µM | IC50: > 200 µM

Cc1cccc2ns[s+]c12
EC50: > 18.6 µM | IC50: > 18.6 µM

COC(=O)CCC12CCC(=O)C1[C@@H](C(=O)OC)C[C@H]2C(=O)OC (some centres not stated)
outcome: inactive

CC1(C)CC(=O)c2c(nc3c(ccc4ccccc43)c2-c2ccc(NC(=O)CCCCCCCCC(=O)Nc3ccc(-c4c5c(nc6c4ccc4ccccc46)CC(C)(C)CC5=O)cc3)cc2)C1
EC50: > 100 µM | IC50: > 100 µM

O=[N+]([O-])c1cc([N+](=O)[O-])c(/C=C/c2ccc(Cl)c(Cl)c2)cc1/C=C/c1ccc(Cl)c(Cl)c1
EC50: > 19.5 µM | IC50: > 19.5 µM

CCOC(=O)c1c[nH]c2cc3c(cc2c1=O)CCS3
EC50: > 200 µM | IC50: 115 µM

CC1(C)CCC2=C(O1)C(=O)c1ccccc1C2=O
EC50: > 200 µM | IC50: 18.2 µM and 14.5 µM

O=C1C=CC[C@H](/C=C/C[C@@H](O)C[C@H](O)/C=C/c2ccccc2)O1
EC50: > 200 µM | IC50: 5.37 µM

O=c1c2cccc3cccc(c4n1CCN=4)c32
EC50: > 200 µM | IC50: 20.9 µM

O=C(c1ccc(Cl)cc1)c1cnc2nc(-c3ccccc3)c(-c3ccccc3)nn12
EC50: > 1.78 µM | IC50: > 1.78 µM

CCOC(=O)c1c(NC(=S)Nc2ccccc2)sc2c1CCN(C)C2
EC50: > 200 µM | IC50: > 200 µM

O=C1CC(=O)N2C(=O)CC(=O)N12
EC50: > 537 µM | IC50: > 537 µM

CCCCc1c2c(nc3c1CCCC3O)CCCC2 (configuration not stated)
EC50: > 200 µM | IC50: 81.3 µM

NC(=S)N/N=c1\cc(C(=O)Nc2ccc([N+](=O)[O-])cc2[N+](=O)[O-])oc2ccccc12
EC50: > 60.3 µM | IC50: > 60.3 µM

CCOC1OC(c2ccccc2)=NS(=O)(=O)C1(C)C (configuration not stated)
EC50: > 891 µM | IC50: 513 µM

COC(=O)C(CC(=O)Nc1ccc(Cl)c(Cl)c1)C(=O)C(=O)Nc1ccc(Cl)c(Cl)c1 (configuration not stated)
EC50: > 52.5 µM | IC50: > 52.5 µM

CCC1(CC)COP(=O)(Oc2ccccc2)OC1
EC50: > 200 µM | IC50: > 200 µM

Nc1nc(N)c(CCCc2ccccc2)c(N)n1
outcome: inactive

O=S1C(=c2ccc(=C3Sc4ccccc4S3)cc2)Sc2ccccc21 (configuration not stated)
outcome: inactive

CO/N=C/c1cc(NC(=S)c2ccoc2C)ccc1Cl
EC50: 0.0575 µM | IC50: 29.5 µM

CCOC(=O)c1sc2c(C(=O)OCC)c3cc(C)ccn3c2c1N
outcome: inactive

c1ccc(CN(Cc2ccccn2)Cc2ccccn2)nc1
EC50: > 200 µM | IC50: 3.16 µM

Nc1ccc2nc(NCc3ccc(F)cc3)cnc2c1
EC50: > 933 µM | IC50: 83.2 µM

Cc1nn(C(=O)Cc2ccccc2)c2c1C(c1ccc3ccccc3c1O)SC(N)=N2 (configuration not stated)
EC50: > 200 µM | IC50: 24 µM

COc1cc(C)c2c(c1)CN1CN2Cc2cc(OC)cc(C)c21
outcome: inactive

Cc1ccccc1NC(=O)c1cc(-c2ccc([N+](=O)[O-])cc2)nc(=S)[nH]1
EC50: > 490 µM | IC50: > 490 µM

C=CCOC1=C(OCC=C)C(C2COC(C)(C)O2)OC1=O (configuration not stated)
EC50: > 200 µM | IC50: 70.8 µM

O=[N+]([O-])/C(Cl)=C/C(=C1/Nc2ccccc2O1)[N+](=O)[O-]
EC50: > 200 µM | IC50: 30.2 µM

S=c1[nH]ncc(SCc2ccccc2)c1SCc1ccccc1
EC50: > 200 µM | IC50: 13.2 µM

O=C(OCc1ccccc1)[C@H]1O[C@@H]1C(=O)OCc1ccccc1
EC50: > 200 µM | IC50: 25.7 µM
